{"source": "patent US10266603B2", "about": "“Targeted therapy to restore radioactive iodine transport in thyroid cancer” (The Governors of the University of Alberta, priority 2014, dated 2019)", "format_in_all_cases": "cell-based, human", "key": {"[1]": {"system": "patient derived papillary thyroid carcinoma primary tumors", "experiment": "iodide transport in patient derived primary tumors", "conditions": "patient derived PTC primary tumors; 72 hour period", "text": "FIG. 9. In the effect of PDGFRA blockade using small molecule inhibitors on iodide transport in patient derived papillary thyroid carcinoma primary tumors."}, "8305C cell line": {"system": "8305C cell line", "experiment": "wound-healing assay (cellular migration), 8305C", "conditions": "8305C cell line expressing alpha subunit of PDGFR; after 24 and 42 hours; versus no crenolanib", "procedure": "(§1) FIG. 8. The effect of PDGFRA blockade using a specific PDGFRA small molecule inhibitor on cellular migration using the wound-healing assay. In two separate cell lines that express the alpha subunit of PDGFR as shown in (A) 8305C cell line and BCPAP cell line in (B), the addition of crenolanib as a selective alpha inhibitor means that the percentage of open wound left after 24 and 42 hours is much higher because of slow the migration of the cells across the gap and this is highly significant. This illustrates the role of PDGFRA in mediating a more aggressive, dedifferentiated behavior for these tumors."}, "BCPAP cell line": {"system": "BCPAP cell line", "experiment": "wound-healing assay (cellular migration), BCPAP", "conditions": "BCPAP cell line expressing alpha subunit of PDGFR; after 24 and 42 hours; versus no crenolanib", "procedure": "as §1"}}}
{"molecule": "CC1(COc2ccc3c(c2)ncn3-c2ccc3cccc(N4CCC(N)CC4)c3n2)COC1", "note": "[crenolanib]", "values": [{"measurement": "iodide uptake", "setting": "[1]", "value": "significant increase in iodide uptake"}, {"measurement": "percentage of open wound left", "setting": "8305C cell line", "value": "much higher"}, {"measurement": "percentage of open wound left", "setting": "BCPAP cell line", "value": "much higher"}]}
